For orientation: melting point means the temperature, or range, at which the solid turns liquid.

Results on one compound are retold here after patent publication US11076596B2, “Substituted trifluoromethyloxadiazoles for combating phytopathogenic fungi” (BASF SE, priority 2017, dated 2021).

For the compound `CO/N=C1\CCCC1NC(=O)c1ccc(-c2noc(C(F)(F)F)n2)cc1` (stereo not shown) [Ex-1, N-[(2E)-2-methoxyiminocyclopentyl]-4-[5-(trifluoromethyl)-1,2,4-oxadiazol-3-yl]benzamide], the melting point stood at 175 °C.
